Assay results from the NIST ThermoML archive (doi:10.1016/j.jct.2007.05.011).
± gives the expanded uncertainty stated by the source.

Experiment: xn = mol fraction of the nth substance listed
Details: 101 kPa, Liquid; for mass density: Vibrating tube method

NCCO.O=CO [2-hydroxyethylammonium formate] + O
Details | mass density [kg/m3] | speed of sound [m/s]
305.65 K, x2 = 0 | – | 1690.8 ± 9.8
305.65 K, x2 = 0.047 | – | 1723.5 ± 9.8
305.65 K, x2 = 0.108 | – | 1725.2 ± 9.6
305.65 K, x2 = 0.199 | – | 1726.8 ± 9.4
305.65 K, x2 = 0.311 | – | 1728.3 ± 9.2
305.65 K, x2 = 0.4 | – | 1728 ± 9.1
305.65 K, x2 = 0.492 | – | 1727.3 ± 8.9
305.65 K, x2 = 0.601 | – | 1723.5 ± 8.8
305.65 K, x2 = 0.699 | – | 1717.4 ± 8.6
305.65 K, x2 = 0.8 | – | 1697.5 ± 8.5
305.65 K, x2 = 0.9 | – | 1649 ± 8.2
305.65 K, x2 = 0.95 | – | 1598.9 ± 8
308.15 K, x2 = 0 | 1169.39 ± 31 | 1684.8 ± 9.7
308.15 K, x2 = 0.047 | 1169.74 ± 31 | 1718.4 ± 9.7
308.15 K, x2 = 0.108 | 1168.41 ± 30 | 1720.2 ± 9.6
308.15 K, x2 = 0.199 | 1165.49 ± 30 | 1721.9 ± 9.4
308.15 K, x2 = 0.311 | 1160.67 ± 30 | 1723.6 ± 9.2
308.15 K, x2 = 0.4 | 1155.85 ± 30 | 1723.5 ± 9
308.15 K, x2 = 0.492 | 1149.4 ± 30 | 1723 ± 8.9
308.15 K, x2 = 0.601 | 1138.94 ± 30 | 1719.6 ± 8.7
308.15 K, x2 = 0.699 | 1125.12 ± 30 | 1714.1 ± 8.6
308.15 K, x2 = 0.8 | 1103.38 ± 30 | 1695.2 ± 8.5
308.15 K, x2 = 0.9 | 1066.39 ± 30 | 1648.9 ± 8.2
308.15 K, x2 = 0.95 | 1036.99 ± 30 | 1600.8 ± 8
310.65 K, x2 = 0 | 1167.62 ± 31 | 1678.7 ± 9.7
310.65 K, x2 = 0.047 | 1168.1 ± 31 | 1713.4 ± 9.7
310.65 K, x2 = 0.108 | 1166.77 ± 30 | 1715.2 ± 9.6
310.65 K, x2 = 0.199 | 1163.86 ± 30 | 1717.1 ± 9.4
310.65 K, x2 = 0.311 | 1159.05 ± 30 | 1718.9 ± 9.2
310.65 K, x2 = 0.4 | 1154.22 ± 30 | 1718.9 ± 9
310.65 K, x2 = 0.492 | 1147.79 ± 30 | 1718.7 ± 8.9
310.65 K, x2 = 0.601 | 1137.34 ± 30 | 1715.6 ± 8.7
310.65 K, x2 = 0.699 | 1123.56 ± 30 | 1710.7 ± 8.6
310.65 K, x2 = 0.8 | 1101.88 ± 30 | 1692.8 ± 8.4
310.65 K, x2 = 0.9 | 1065.06 ± 30 | 1648.6 ± 8.2
310.65 K, x2 = 0.95 | 1035.83 ± 30 | 1602.4 ± 8
313.15 K, x2 = 0 | 1165.84 ± 31 | 1672.7 ± 9.7
313.15 K, x2 = 0.047 | 1166.46 ± 31 | 1708.3 ± 9.7
313.15 K, x2 = 0.108 | 1165.14 ± 30 | 1710.2 ± 9.6
313.15 K, x2 = 0.199 | 1162.22 ± 30 | 1712.1 ± 9.4
313.15 K, x2 = 0.311 | 1157.42 ± 30 | 1714.1 ± 9.2
313.15 K, x2 = 0.4 | 1152.6 ± 30 | 1714.4 ± 9
313.15 K, x2 = 0.492 | 1146.17 ± 30 | 1714.3 ± 8.9
313.15 K, x2 = 0.601 | 1135.74 ± 30 | 1711.7 ± 8.7
313.15 K, x2 = 0.699 | 1121.98 ± 30 | 1707.2 ± 8.6
313.15 K, x2 = 0.8 | 1100.38 ± 30 | 1690.4 ± 8.4
313.15 K, x2 = 0.9 | 1063.71 ± 30 | 1648.2 ± 8.2
313.15 K, x2 = 0.95 | 1034.64 ± 30 | 1603.8 ± 8
315.65 K, x2 = 0 | 1164.06 ± 31 | 1666.7 ± 9.7
315.65 K, x2 = 0.047 | 1164.82 ± 31 | 1703.3 ± 9.7
315.65 K, x2 = 0.108 | 1163.51 ± 30 | 1705.2 ± 9.5
315.65 K, x2 = 0.199 | 1160.59 ± 30 | 1707.2 ± 9.3
315.65 K, x2 = 0.311 | 1155.79 ± 30 | 1709.4 ± 9.1
315.65 K, x2 = 0.4 | 1150.97 ± 30 | 1709.8 ± 9
315.65 K, x2 = 0.492 | 1144.56 ± 30 | 1710 ± 8.8
315.65 K, x2 = 0.601 | 1134.13 ± 30 | 1707.6 ± 8.7
315.65 K, x2 = 0.699 | 1120.4 ± 30 | 1703.7 ± 8.6
315.65 K, x2 = 0.8 | 1098.86 ± 30 | 1687.8 ± 8.4
315.65 K, x2 = 0.9 | 1062.35 ± 30 | 1647.5 ± 8.2
315.65 K, x2 = 0.95 | 1033.42 ± 30 | 1604.9 ± 8
318.15 K, x2 = 0 | 1162.29 ± 31 | 1660.8 ± 9.6
318.15 K, x2 = 0.047 | 1163.18 ± 31 | 1698.3 ± 9.7
318.15 K, x2 = 0.108 | 1161.88 ± 30 | 1700.2 ± 9.5
318.15 K, x2 = 0.199 | 1158.96 ± 30 | 1702.4 ± 9.3
318.15 K, x2 = 0.311 | 1154.16 ± 30 | 1704.7 ± 9.1
318.15 K, x2 = 0.4 | 1149.34 ± 30 | 1705.2 ± 9
318.15 K, x2 = 0.492 | 1142.94 ± 30 | 1705.6 ± 8.8
318.15 K, x2 = 0.601 | 1132.52 ± 30 | 1703.6 ± 8.7
318.15 K, x2 = 0.699 | 1118.82 ± 30 | 1700.2 ± 8.6
318.15 K, x2 = 0.8 | 1097.33 ± 30 | 1685.1 ± 8.4
318.15 K, x2 = 0.9 | 1060.95 ± 30 | 1646.7 ± 8.2
318.15 K, x2 = 0.95 | 1032.17 ± 30 | 1605.8 ± 8
320.65 K, x2 = 0 | 1160.51 ± 31 | 1654.8 ± 9.6
320.65 K, x2 = 0.047 | 1161.55 ± 31 | 1693.3 ± 9.6
320.65 K, x2 = 0.108 | 1160.25 ± 30 | 1695.3 ± 9.5
320.65 K, x2 = 0.199 | 1157.34 ± 30 | 1697.5 ± 9.3
320.65 K, x2 = 0.311 | 1152.53 ± 30 | 1699.9 ± 9.1
320.65 K, x2 = 0.4 | 1147.7 ± 30 | 1700.6 ± 8.9
320.65 K, x2 = 0.492 | 1141.31 ± 30 | 1701.2 ± 8.8
320.65 K, x2 = 0.601 | 1130.9 ± 30 | 1699.5 ± 8.7
320.65 K, x2 = 0.699 | 1117.22 ± 30 | 1696.5 ± 8.6
320.65 K, x2 = 0.8 | 1095.78 ± 30 | 1682.4 ± 8.4
320.65 K, x2 = 0.9 | 1059.54 ± 30 | 1645.7 ± 8.2
320.65 K, x2 = 0.95 | 1030.89 ± 30 | 1606.4 ± 8
323.15 K, x2 = 0 | 1158.73 ± 31 | 1648.9 ± 9.6
323.15 K, x2 = 0.047 | 1159.94 ± 31 | 1688.4 ± 9.7
323.15 K, x2 = 0.108 | 1158.62 ± 30 | 1690.5 ± 9.5
323.15 K, x2 = 0.199 | 1155.72 ± 30 | 1692.7 ± 9.3
323.15 K, x2 = 0.311 | 1150.91 ± 30 | 1695.2 ± 9.1
323.15 K, x2 = 0.4 | 1146.05 ± 30 | 1696 ± 8.9
323.15 K, x2 = 0.492 | 1139.69 ± 30 | 1696.8 ± 8.8
323.15 K, x2 = 0.601 | 1129.29 ± 30 | 1695.4 ± 8.7
323.15 K, x2 = 0.699 | 1115.62 ± 30 | 1692.8 ± 8.5
323.15 K, x2 = 0.8 | 1094.23 ± 30 | 1679.5 ± 8.4
323.15 K, x2 = 0.9 | 1058.12 ± 30 | 1644.6 ± 8.2
323.15 K, x2 = 0.95 | 1029.58 ± 30 | 1606.8 ± 8.1
